# Results published in patent publication US7598234B2, “Steroid derived antibiotics” (Brigham Young University, priority 1998, dated 2009).
# Tested on: E. coli containing an inducible luciferase coding plasmid
# Test: Luciferin/luciferase-based permeabilization / cell lysis assay
# Set-up: species or system Escherichia coli
# Conditions: permeabilization of the outer membrane allowing luciferin to enter the cell
# Protocol: Using a technique described by J. M. Shupp, S. E. Travis, L. B. Price, R. F. Shand, P. Keim, RAPID BACTERIAL PERMEABILIZATION REAGENT USEFUL FOR ENZYME ASSAYS, Biotechniques, 1995, vol.
# In this assay, E. coli containing an inducible luciferase coding plasmid was incubated with the inducing agent […], then treated with a lysis buffer containing either PMB or one of the cholic acid derivatives, and Triton X-100. Luciferin and ATP were then added. […] The concentrations of the membrane disrupting agents (PMB and the cholic acid derivatives) were varied, and the resulting luminescence was measured.
compound,measurement,value
C[C@H](CCCN(C)Cc1ccccc1)[C@H]1CC[C@H]2[C@@H]3[C@H](OCCCN)C[C@@H]4C[C@H](OCCCN)CC[C@]4(C)[C@H]3C[C@H](OCCCN)[C@]12C [Compound 2],half maximum luminescence,7 µg/mL
